Measurements taken from patent publication US4193997A, “Thieno[2,3-c] and [3,2-c]pyridines, process for their preparation and therapeutic applications thereof” (Parcor, priority 1977, dated 1980).

Experiments:
[1] = tested on: collagen-induced blood-platelet aggregation; assay: Collagen-induced blood-platelet aggregation after oral treatment of rats; type: in vivo, Wistar rats; conditions: Rattus norvegicus, 100 mg/kg oral, 3 hrs after treatment, collagen (bovine tendon extract), read-out: Percent inhibition of blood-platelet aggregation, Collagen
Method: (§1) Blood is taken from the jugular vein of Wistar rats. From this citrated blood, and after centrifugation, a plasma containing 600,000±20,000 blood-platelets per mm 3 is reconstituted, which plasma is used in all aggregation determinations.
(§2) 0.4 ml plasma is placed in a siliconized tube provided with a magnet bar which is also siliconized. The tube is introduced into an aggregometer connected to an apparatus which records the optical density variations. When light transmission reaches a stable value, 0.5 ml of a solution containing 10 μM A.D.P. (adenosine diphosphate) is introduced into the tube.
The A.D.P. solution is substituted with a collagen solution (bovine tendon extract).
(§3) Different groups of 20 rats each are used. Each group is orally administered a test derivative, at a dosage of 100 mg/kg. The results obtained during both tests are reported in following Table I which indicates the percent inhibition of blood-platelet aggregation obtained with respect to the reference group, 3 hrs after treatment.

[2] = tested on: A.D.P.-induced blood-platelet aggregation; assay: A.D.P.-induced blood-platelet aggregation after oral treatment of rats; type: in vivo, Wistar rats; conditions: Rattus norvegicus, 100 mg/kg oral, 3 hrs after treatment, 10 μM A.D.P. solution, read-out: Percent inhibition of blood-platelet aggregation, A.D.P.
Method: as §1, §2
Blood-platelet aggregation then induces an increase of light transmission, followed by a decrease subsequent to the disaggregation stage.
The maximal optical density variation thus determined characterizes the extent of the aggregation.
as §3

mouse = assay: Antalgic action, mechanical stimulation method according to Haffner; type: in vivo; conditions: 100 mg/kg oral
Method: (a) Mechanical stimulation method according to Haffner (Deutsch. Wish., 1959, 55, 731-733). This method comprises placing a pressure forceps at the base of the tail of a mouse and recording the number of bites self-inflicted by the animal in its endeavour to remove the forceps. The decrease of the number of bites prior and subsequent to oral administration of the test compound at a dosage of 100 mg/kg provides a measure of the antalgic activity of the derivatives of this invention.

[3] = tested on: ovalbumin-induced systemic edema; assay: Ovalbumin-induced systemic edema method; type: in vivo; conditions: rats, 100 mg/kg oral one hour before and with ovalbumin
Method: Rats are administered a simultaneous intraperitoneal injection of 1 ml ovalbumin and 0.5 ml of a 1% aqueous Evans Blue solution. The animals of the treated group are additionally orally administered 100 mg/kg of the test derivative, one hour prior to ovalbumin administration and then simultaneously with said ovalbumin administration. The intensity of the phenomenon thus induced is rated according to a scale from 1 to 5, according to the progress of the inflammatory syndrome. The determinations are effected after 2 hours and after 3 hours. Thus are determined the mean intensity of the edema and the percent decrease of the edema reaction.

mice = assay: Antalgic action, acetic acid method according to Koster, Anderson & de Beer; type: in vivo; conditions: 100 mg/kg oral, 30 minutes prior to i.p. acetic acid
From the text: (b) Acetic acid method, according to Koster, Anderson & de Beer (Fed. Proced., 18, 1959, 412, 1, 626)
Intraperitoneal injection of a dilute acetic acid solution induces, in mice, characteristic writhing movements which are repeated due to the effect of pain.

[4] = tested on: carrageenin-induced edema; assay: Localized carrageenin-induced edema method; type: in vivo; conditions: rats, 100 mg/kg oral one hour before, with, and 1 and 2.5 hours after carrageenin
Method: 0.1 ml of a 1% carrageenin solution is injected at time O in the metatarsal flexor muscles of the right hind limb of rats.
The animals of the treated group are additionally orally administered 100 mg/kg of the test derivative, respectively one hour prior to, and then simultaneously with the phlogogenic agent, and then one hour and 2.5 hours thereafter. The determinations effected with a ROCH micrometer at times 0, 1 hr, 2 hrs, 3 hrs and 5 hrs after carrageenin administration make it possible to determine the percent anti-inflammatory activity, as a function of time.

COc1cc(COC(=O)C2Cc3sccc3C(=O)N2Cc2cc(OC)c(OC)c(OC)c2)cc(OC)c1OC (stereo not drawn) [Derivative n°15, 4-Oxo-6-(3,4,5-trimethoxy-benzyloxycarbonyl)-5-(3,4,5-trimethoxybenzyl)-4,5,6,7-tetrahydro-thieno[3,2-c]pyridine]
inhibition at 100 mg/kg [1]: 91.6% | inhibition at 100 mg/kg [2]: 61.8% | mean percent antalgia after 30 min. (mouse): 73% | mean percent antalgia after 1 hr (mouse): 67% | mean percent antalgia after 2 hrs (mouse): 63% | mean percent antalgia after 3 hrs (mouse): 56% | Percent decrease of the edema reaction After 2 hours [3]: 48% | Percent decrease of the edema reaction After 3 hours [3]: 58% | percent antalgia (mice): 69% | Percent anti-inflammatory activity after 1 hour [4]: 40% | Percent anti-inflammatory activity after 2 hours [4]: 52% | Percent anti-inflammatory activity After 3 hours [4]: 57%

CC(=O)N1CCc2sccc2C1=O [Derivative n°5, 4-Oxo-5-acetyl-4,5,6,7-tetrahydro-thieno[3,2-c]pyridine]
inhibition at 100 mg/kg [1]: 92.6% | inhibition at 100 mg/kg [2]: 63.2% | mean percent antalgia after 30 min. (mouse): 66% | mean percent antalgia after 1 hr (mouse): 60% | mean percent antalgia after 2 hrs (mouse): 54% | mean percent antalgia after 3 hrs (mouse): 48% | Percent decrease of the edema reaction After 2 hours [3]: 38% | Percent decrease of the edema reaction After 3 hours [3]: 47% | percent antalgia (mice): 64% | Percent anti-inflammatory activity after 1 hour [4]: 39% | Percent anti-inflammatory activity after 2 hours [4]: 51% | Percent anti-inflammatory activity After 3 hours [4]: 55%

O=C1c2ccsc2CCN1Cc1ccccc1 [Derivative n°2, 4-Oxo-5-benzyl-4,5,6,7-tetrahydro-thieno[3,2-c]pyridine]
inhibition at 100 mg/kg [1]: 91.2% | inhibition at 100 mg/kg [2]: 61.5% | mean percent antalgia after 30 min. (mouse): 71% | mean percent antalgia after 1 hr (mouse): 65% | mean percent antalgia after 2 hrs (mouse): 58% | mean percent antalgia after 3 hrs (mouse): 51% | Percent decrease of the edema reaction After 2 hours [3]: 42% | Percent decrease of the edema reaction After 3 hours [3]: 50% | percent antalgia (mice): 68% | Percent anti-inflammatory activity after 1 hour [4]: 36% | Percent anti-inflammatory activity after 2 hours [4]: 47% | Percent anti-inflammatory activity After 3 hours [4]: 53%

O=C1NCCc2sccc21 [Derivative n°7, 4-Oxo-4,5,6,7-tetrahydro-thieno[3,2-c]pyridine]
inhibition at 100 mg/kg [1]: 92.6% | inhibition at 100 mg/kg [2]: 62.3% | mean percent antalgia after 30 min. (mouse): 78% | mean percent antalgia after 1 hr (mouse): 76% | mean percent antalgia after 2 hrs (mouse): 72% | mean percent antalgia after 3 hrs (mouse): 64% | Percent decrease of the edema reaction After 2 hours [3]: 51% | Percent decrease of the edema reaction After 3 hours [3]: 63% | percent antalgia (mice): 75% | Percent anti-inflammatory activity after 1 hour [4]: 44% | Percent anti-inflammatory activity after 2 hours [4]: 55% | Percent anti-inflammatory activity After 3 hours [4]: 63%
